{"source": "patent US20220204563A1", "about": "“DELIVERY PEPTIDES AND METHODS OF USING THE SAME” (NATIONAL INSTITUTE FOR BIOTECHNOLOGY IN THE NEGEV LTD., priority 2019, published 2022)", "key": {"[1]": {"assay": "Dynamic light scattering (DLS) of dsRNA-peptide conjugates", "type": "physicochemical", "conditions": "700 bp dsRNA, dsRNA:peptide ratio 1:30 (FIG. 6B dots)", "method": "Constant amount of dsRNA (25 pmole) solution was mixed with an increasing amount of peptide solution in an Eppendorf vial (˜1.5 mL). The total conjugation reaction volume was completed to 15 μl with DEPC treated DDW. The solutions were incubated at room temperature for 20 minutes. To evaluate peptide-dsRNA conjugation, a 1.3% agarose gel was prepared in TAE buffer. Conjugates were mixed with equal volume of loading buffer (50% glycerol and 0.5 M EDTA). Peptide-dsRNA conjugates were separated for 30 minutes at 120 V. Fluorescent emission of conjugates in gels were scanned by using a Typhoon FLA 9500 gel system (GE Healthcare®).\nIn order to verify whether the Vg-derived peptide was capable to piggyback and internalize a large molecule such as a dsRNA into the oocytes, a conjugation approach between the peptide and dsRNA was developed. The Vg-TAMRA and the control-FITC peptides were synthesized with a cationic poly lysine-histidine tail (KH) to allow electrostatic interactions between the peptides and the negatively charged dsRNA. The dsRNA-peptide complexes prepared at different molar ratios (peptide/dsRNA ratio: 1, 5, 10, 20 and 30) were characterized with two different assays: dynamic light scattering (DLS) and separation on agarose gel.\ndsRNA of 700 bp (dsEGFR) and another one a mix of 200 and 230 bp dsRNA (dsPAX6) were prepared (FIG. 3A). […]"}, "[2]": {"system": "M. rosenbergii early vitellogenic oocytes", "assay": "In vitro incubation of ovary pieces with fluorophore-labelled peptides, confocal imaging of oocytes", "type": "cell-based, Macrobrachium rosenbergii", "conditions": "for Distribution of TAMRA-labelled peptide in the oocyte: ovary pieces incubated with Vg-TAMRA or scVg-TAMRA separately, 6 μM, confocal; for Endocytosis into oocytes, distribution of the two fluorescent-labelled peptides: simultaneous incubation with Vg-TAMRA and control-FITC, 6 μM each; for Fluorescent intensity in oocytes compared to Vg246-253-TAMRA: ovary slices in vitro, TAMRA emission", "method": "(§1) Ovary pieces from in-vitro or in-vivo experiments were washed with Schneider's drosophila medium without the peptides for 5 min. Then, the pieces were torn apart on a slide in one drop of the medium to better view the individual oocytes. The slides were inspected, and images were taken by a confocal microscope FV1000 (Olympus) at ×60 magnification. The excitation laser wavelength was 561 nm for the TAMRA labelled peptides and 488 nm for FITC labelled control peptides, and the emission was obtained at […], respectively.\nM. rosenbergii ovary pieces of 1-3 mm with oocytes diameter of ˜150 μm (early vitellogenic ovaries) were incubated in a sterile 24-wells plate, 2 cm^2 growth area each well (Biofil®) in a biological hood. Each piece was incubated with 250 μl Schneider's drosophila culture medium with osmolality fixed to 420 mOsm/L and supplemented with FBS (10%), PSA (final concentration: Penicillin—100 units/mL, streptomycin—0.1 mg/mL, Amphotericin B—0.25 μg/mL and insulin 10 mg/ml insulin in 25 mM HEPES). The ovary pieces were incubated either with Vg-TAMRA or scVg-TAMRA or with both Vg-TAMRA and scVg-FITC simultaneously (6 μM each). The plate was incubated at room temperature for 24 and 48 hours. To test dsRNA piggybacking, 55 pmole dsRNA was conjugated to 275 pmole either Vg-TAMRA or scVg-FITC peptides. Ovary pieces were incubated with the dsGFP-Vg-TAMRA or dsGFP-scVg-FITC conjugates and cultured as stated above.\nTo evaluate the endocytosis capability of oocytes with respect to the newly designed Vg-derived peptides, an in vitro experiment was performed. Vg-derived and control peptides, labeled with TAMRA fluorophore, were detected by confocal microscopy. Both peptides were detected in the vicinity of the oocyte membrane (FIG. 4). […] In order to get the highest certainty regarding the internalization specificity of the Vg-derived peptides, the Vg and control peptides were labelled with an additional fluorophore (FIGS. 4E-4H), Vg peptide was labelled with TAMRA (FIGS. 4E and 4H), while the control peptide has been labelled with FITC molecule (FIG. 4F). A similar result was obtained in this experiment showing distinct distribution of the two fluorescent-labelled peptides.\nFurther, a dose dependent test with respect to Vg-derived peptides penetration into oocytes using Vg descending concentrations was performed (FIG. 5). Unlike the control scrambled peptide (scVg), the Vg peptide maintained similar pattern of distribution in the oocyte throughout the descending concentrations (FIG. 5, upper row).\nThe inventors further examined the capability and efficacy of shorter/partial sequences derived from the peptide of the invention to being internalized into M. rosenbergii oocytes. Further, the inventors examined whether homologous peptides derived from a different decapod crustacean, e.g., Litopenaeus vannamei, would also be internalized into M. rosenbergii oocytes.\nThe mentioned peptides were incubated in vitro with ovary slices to evaluate their internalization. […] In contrast to that, the Vg-derived peptides were capable to enter the oocyte as they were observed beyond the follicular cells inside the oocytes (red dots, FIGS. 11B-11G). […] Moreover, both L. vannamei Vg derived peptides were capable to endocytose into M. rosenbergii oocytes (FIGS. 11F-11G)."}, "[3]": {"system": "oocytes", "assay": "In vivo assay: peptide injection into the hemolymph of reproductive females, confocal imaging of oocytes and gills", "design": "species or system Macrobrachium rosenbergii", "conditions": "for Fluorescent emission in oocytes after injection: mixture of both peptides injected, 5 μg/gr body weight, oocytes dissected 24 h after injection", "method": "as §1\nSolution containing the culture medium, Vg-TAMRA and scVg-FITC peptides were injected (5 μg/gr body weight) into the hemolymph sinus at the base of the fifth walking leg of a M. rosenbergii reproductive females (14.3±0.4 gr, with opaque white to yellowish ovary, FIG. 2, left). For the injection, a manual micro dispenser syringe was used (Drummond®). After injection, the animals were kept at 28° C. for 24 hours in the culture facility for freshwater prawn M. rosenbergii, at Ben-Gurion University. Vg-dsEGFR or Vg-dsPAX6 conjugates (5:1 molar ratio for conjugation, 5 μg dsRNA/g body weight) were injected twice a week at the first two weeks. From the third week, the injections were performed once a week. The females were monitored daily and upon appearance of the reproductive molt, the females were released to a tank with a male for fertilization. The embryos' development on the pleopods of their mother (FIG. 2, middle) were monitored under stereoscope, and a fraction was collected for RNA extraction and subsequent quantitative PCR analysis.\nTo determine whether the Vg-TAMRA peptide has the capability to specifically in vivo internalize into oocytes, a mixture of the Vg-TAMRA and the control-FITC peptides were injected into the prawn circulatory system. […] To verify that the two peptides did circulate through the prawn female body, the prawn gills were dissected and examined under the confocal microscope."}}, "note": "Primed or numbered codes have the meaning given here. No end group written: not given here. TAMRA = tetramethylrhodamine fluorescent label; FITC′ = not defined here"}
{"substance": "KHKHKHKHKHKHKHKHKHCDKNIIKPAYGSYKYVEAHQESVLRK-TAMRA (KHKHKHKHKHKHKHKHKHCDKNIIKPAYGSYKYVEAHQESVLRK-{TAMRA}) [KH9-Vg]", "values": [{"measurement": "Particle radius (DLS)", "setting": "[1]", "result": "~100", "unit": "nm"}]}
{"substance": "CDKNIIKPAYGSYKYVEAHQESVLRK-TAMRA (CDKNIIKPAYGSYKYVEAHQESVLRK-{TAMRA}) [Vg-TAMRA]", "values": [{"measurement": "Fluorescence intensity in comparison to the control peptide", "setting": "[2]; descending concentrations 12-0.75 μM, fluorescence and overlay images", "result": "higher intensity of the red TAMRA emission"}, {"measurement": "Distribution of TAMRA-labelled peptide in the oocyte", "setting": "[2]", "result": "distributed mainly at the cytosolic side of the oocyte membrane"}, {"measurement": "Fluorescent signal in oocytes", "setting": "[2]; peptide concentration 0.75 μM", "result": "No signal was detected"}, {"measurement": "Fluorescent signal in oocytes", "setting": "[2]; peptide concentration 1.5 μM", "result": "clear fluorescent signal"}, {"measurement": "Fluorescent signal in oocytes", "setting": "[2]; peptide concentration 6 μM", "result": "clear fluorescent signal"}, {"measurement": "Fluorescent signal in oocytes", "setting": "[2]; peptide concentration 12 μM", "result": "clear fluorescent signal"}, {"measurement": "Endocytosis into oocytes, distribution of the two fluorescent-labelled peptides", "setting": "[2]", "result": "clearly observed"}, {"measurement": "Detection of peptide in gills after injection", "setting": "[3]; early vitellogenic female injected simultaneously with both peptides", "result": "can be detected in the gills"}, {"measurement": "Fluorescent emission in oocytes after injection", "setting": "[3]", "result": "a clear 564 nm emission was seen inside the oocytes"}]}
{"substance": "DKNIIKPK-TAMRA (DKNIIKPK-{TAMRA}) [Vg237-244-TAMRA]", "values": [{"measurement": "Fluorescent intensity in oocytes compared to Vg246-253-TAMRA", "setting": "[2]", "result": "Weaker florescent intensity"}]}
{"substance": "DKNIIKPAYGSYKYVEAK-TAMRA (DKNIIKPAYGSYKYVEAK-{TAMRA}) [Vg237-253-TAMRA]", "values": [{"measurement": "Fluorescent intensity in oocytes compared to Vg246-253-TAMRA", "setting": "[2]", "result": "Weaker florescent intensity"}]}
{"substance": "CQAPVKLIAYDKNKYEHEYRISVSGK-TAMRA (CQAPVKLIAYDKNKYEHEYRISVSGK-{TAMRA}) [scVg-TAMRA, reference compound]", "values": [{"measurement": "Distribution of TAMRA-labelled peptide in the oocyte", "setting": "[2]", "result": "mainly dispersed on the outer surface of the oocyte"}, {"measurement": "Fluorescent signal in oocytes", "setting": "[2]; peptide concentration 0.75 μM", "result": "No signal was detected"}, {"measurement": "Fluorescent signal in oocytes", "setting": "[2]; peptide concentration 1.5 μM", "result": "no apparent signal"}, {"measurement": "Fluorescent signal in oocytes", "setting": "[2]; peptide concentration 6 μM", "result": "weak fluorescent signal"}, {"measurement": "Fluorescent signal in oocytes", "setting": "[2]; peptide concentration 12 μM", "result": "weak fluorescent signal"}]}
{"substance": "CQAPVKLIAYDKNKYEHEYRISVSGK-FITC (CQAPVKLIAYDKNKYEHEYRISVSGK-{FITC′}) [scVg-FITC, reference compound]", "values": [{"measurement": "Internalization into M. rosenbergii oocytes", "setting": "[2]; ovary slices incubated with Vg-derived peptide TAMRA and scVg-FITC simultaneously", "result": "observed only on the outer area of the oocyte"}, {"measurement": "Endocytosis into oocytes, distribution of the two fluorescent-labelled peptides", "setting": "[2]", "result": "only on the outer surface of the membrane"}, {"measurement": "Detection of peptide in gills after injection", "setting": "[3]; in vivo", "result": "can be detected in the gills"}, {"measurement": "Fluorescent emission in oocytes after injection", "setting": "[3]", "result": "absent from oocytes"}]}
{"substance": "Vg235-260-TAMRA: 26 amino acid VgR interacting region peptide; probably the Vg-TAMRA peptide of SEQ ID NO: 22 (CDKNIIKPAYGSYKYVEAHQESVLRK; not fully specified (C-terminus); also: TAMRA label)", "values": [{"measurement": "Fluorescent intensity in oocytes compared to Vg246-253-TAMRA", "setting": "[2]", "result": "Weaker florescent intensity"}]}
